Structures can show the parent of a compound that is named as a salt.
Experiments:
[1] = Rodent pharmacokinetic study; format: in vivo, Male Wister rats; settings: plasma
Protocol: Three to five animals were housed in each cage. […] Animals were fasted over night before oral dosing (p.o) and food pellets were allowed 2 hours post dosing, whereas intravenous dosing food and water were provided as ad libitum. Three rats were dosed with compounds of formula (I) (10 mg/kg) orally and intravenously (05 mg/kg).
At each time point blood was collected through jugular vein and immediately replenish with an equivalent volume of normal saline from freely moving rats. Collected blood was transferred into a labeled eppendr off containing 10 μL of heparin as anticoagulant. Typically blood samples were collected as following time points: Pre dose, 0.08 (only i.v.), 0.25, 0.5, 1, 2, 4, 6, 8, and 24 hours post dose (n=3). Blood was centrifuged at 4000 rpm for 10 minutes. Plasma was prepared and stored frozen at −20° C. until analysis.
Pharmacokinetic parameters Cmax, Tmax, AUCt, T1/2 and Bioavailability were calculated by non-compartmental model using standard non-compartmental model by using WinNonLin 5.0.1 or Phoenix WinNonlin 6.2 version Software package.

[2] = Rodent brain penetration study; settings: male, Wistar, rat, po, 10 mg/kg
Protocol: Three animals were housed in each cage. Animals were given water and food ad libitum throughout the experiment, and maintained on a 12 hours light/dark cycle.
Brain penetration was determined in discrete manner in rats. […] After acclimatization the rats were grouped according to the weight in each group, 3 animals were kept in individual cage and allowed free access to food and water. At each time point (0.50, 1, and 2 hours) n=3 animals were used.
The compounds of formula (I) was suitably preformulated and administered orally at (free base equivalent) 10 mg/kg. Blood samples were removed via, cardiac puncture by using isoflurane anesthesia the animals were sacrificed to collect brain tissue. […] The concentrations of the NCE compound in plasma and Brain were determined using LC-MS/MS method.
Extent of brain-plasma ratio was calculated (Cb/Cp).

Male Wister rats = test: Object recognition task model; format: in vivo; settings: p.o., rat
Protocol: (§1) The cognition enhancing properties of compounds of this invention were estimated by using this model.
Male Wister rats (230-280 grams) were used as experimental animals. Four animals were housed in each cage. […] Also the rats were habituated to individual arenas for 1 hour in the absence of any objects.
One group of 12 rats received vehicle (1 mL/Kg) orally and another set of animals received compound of the formula (I) either orally or i.p., before one hour of the familiar (T1) and choice trial (T2).
The experiment was carried out in a 50×50×50 cm open field made up of acrylic. In the familiarization phase, (T1), the rats were placed individually in the open field for 3 minutes, in which two identical objects (plastic bottles, 12.5 cm height×5.5 cm diameter) covered in yellow masking tape alone (a1 and a2) were positioned in two adjacent corners, 10 cms from the walls. After 24 hours of the (T1) trial for long-term memory test, the same rats were placed in the same arena as they were placed in T1 trial. Choice phase (T2) rats were allowed to explore the open field for 3 minutes in presence of one familiar object (a3) and one novel object (b) (Amber color glass bottle, 12 cm high and 5 cm in diameter). Familiar objects presented similar textures, colors and sizes. During the T1 and T2 trial, explorations of each object (defined as sniffing, licking, chewing or having moving vibrissae whilst directing the nose towards the object at a distance of less than 1 cm) were recorded separately by stopwatch. […] T1 is the total time spent exploring the familiar objects (a1+a2). T2 is the total time spent exploring the familiar object and novel object (a3+b).

[3] = molecular target: recombinant human 5-HT4 receptor (Homo sapiens (Human), UniProt Q13639); test: Determination of EC50 values for 5-HT4 receptor (CHO cells, pCRE-Luc reporter); format: cell-based; settings: CHO cells expressing human 5-HT4 receptor, luciferase activity, 4 hours incubation
Chain of recombinant human 5-HT4 receptor (Q13639 whole entry): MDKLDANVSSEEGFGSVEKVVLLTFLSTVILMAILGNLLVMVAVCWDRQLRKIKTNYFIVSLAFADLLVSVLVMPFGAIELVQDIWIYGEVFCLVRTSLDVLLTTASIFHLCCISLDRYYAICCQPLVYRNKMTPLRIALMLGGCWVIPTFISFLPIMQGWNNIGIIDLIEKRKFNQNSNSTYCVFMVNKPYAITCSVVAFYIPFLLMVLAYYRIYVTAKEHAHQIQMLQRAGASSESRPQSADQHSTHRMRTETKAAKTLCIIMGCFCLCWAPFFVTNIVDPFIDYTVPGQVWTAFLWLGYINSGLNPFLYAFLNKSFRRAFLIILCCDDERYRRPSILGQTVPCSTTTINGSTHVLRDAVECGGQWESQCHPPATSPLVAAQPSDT
Protocol: A stable CHO cell line expressing recombinant human 5-HT4 receptor and pCRE-Luc reporter system was used for cell-based assay. The assay offers a non-radioactive based approach to determine binding of a compound to GPCRs. In this specific assay, the level of intracellular cyclic AMP which is modulated by activation or inhibition of the receptor is measured. The recombinant cells harbor luciferase reporter gene under the control of cAMP response element.
The above cells were grown in 96 well clear bottom white plates in Hams F12 medium containing 10% fetal bovine serum (FBS). Prior to the addition of compounds or standard agonist, cells were serum starved overnight. Increasing concentrations of test compounds were added in OptiMEM medium to the cells. The incubation was continued at 37° C. in CO2 incubator for 4 hours. Medium was removed and cells were washed with phosphate buffered saline. The cells were lysed and luciferase activity was measured in a Luminometer. Luminescence units were plotted against the compound concentrations using Graphpad software.

rats = test: Radial arm maze, reversal of scopolamine induced amnesia; format: in vivo; settings: p.o., rat
Source text: as §1

[4] = Wistar/Male rat, 5 mg/kg, intravenous (bolus)
[5] = Wistar/Male rat, 10 mg/kg oral vs 5 mg/kg intravenous
[6] = Wistar/Male rat, 10 mg/kg, oral (gavage)
[7] = male, Wistar, rat, po, 10 mg/kg

## COCCN1CCC(c2nnc(-c3cc(Cl)c(N)c4c3OCCC4)o2)CC1 [Example 8, 6-Chloro-8-{5-[1-(2-methoxy-ethyl)-piperidin-4-yl]-[1,3,4]oxadiazol-2-yl}-chroman-5-ylamine]
[1]; [4]
  AUC(0-t): 1320 ± 527 ng·h/mL
  Cmax: 1280 ± 239 ng/mL
  Tmax: 4.8 min
  half-life: 61.8 ± 8.4 min
[1]; [5]
  bioavailability: 72 ± 22%
[1]; [6]
  AUC(0-t): 1760 ± 89 ng·h/mL
  Cmax: 918 ± 46 ng/mL
  Tmax: 19.8 ± 8.4 min
  half-life: 60.6 ± 4.8 min
[2]; brain homogenate and plasma
  Kp: 0.56 ± 0.08
Male Wister rats; 3 mg/kg
  Exploration time mean ± S.E.M, Familiar object: 10.45 ± 1.162 s
  Exploration time mean ± S.E.M, Novel object: 17.59 ± 2.95 s
  Inference: Active
[3]
  EC50: 15.6 nM

## Nc1c(Cl)cc(-c2nnc(CC3CCN(C4CCCC4)CC3)o2)c2c1CCCO2.O=C(O)C(=O)O [Example 21, 6-Chloro-8-[5-(1-cyclopentyl-piperidin-4-ylmethyl)-[1,3,4]oxadiazol-2-yl]-chroman-5-ylamine oxalate salt]
[1]; male, Wistar, rat, iv, 5 mg/kg
  AUC(0-t): 876 ± 65 ng·h/mL
  Cmax: 750 ± 14 ng/mL
  Tmax: 4.8 min
  half-life: 107 ± 25.8 min
[1]; [7]
  AUC(0-t): 1490 ± 72 ng·h/mL
  Cmax: 553 ± 53 ng/mL
  Tmax: 25.2 ± 7.2 min
  bioavailability: 85 ± 4%
  half-life: 94.2 ± 6.6 min
[2]; brain homogenate and plasma
  Kp: 0.62 ± 0.05
[3]
  EC50: 71.2 nM

## CC(C)n1nc(-c2nnc(C3CCN(C4CCC4)CC3)o2)c2ccccc21 [Example 37, 3-[5-(1-Cyclobutyl-piperidin-4-yl)-[1,3,4]oxadiazol-2-yl]-1-isopropyl-1H-indazole]
[2]; in vivo
  Kp: 5.68 ± 1.74

## Nc1c(Cl)cc(-c2nnc(CCCN3CCCCC3)o2)c2c1CCCO2.O=C(O)C(O)C(O)C(=O)O [Example 20, 6-Chloro-8-[5-(3-piperidin-1-yl-propyl)-[1,3,4]oxadiazol-2-yl]-chroman-5-ylamine tartarate salt]
[1]; [4]
  AUC(0-t): 867 ± 173 ng·h/mL
  Cmax: 976 ± 305 ng/mL
  Tmax: 4.8 min
  half-life: 48 ± 3.6 min
[1]; [5]
  bioavailability: 46 ± 9%
[1]; [6]
  AUC(0-t): 790 ± 153 ng·h/mL
  Cmax: 602 ± 35 ng/mL
  Tmax: 15 min
  half-life: 61.8 ± 1.2 min
[2]; brain homogenate and plasma
  Kp: 0.5 ± 0.07
Male Wister rats; 3 mg/kg
  Exploration time mean ± S.E.M, Familiar object: 4.69 ± 0.79 s
  Exploration time mean ± S.E.M, Novel object: 11.04 ± 1.33 s
  Inference: Active
[3]
  EC50: 104 nM

## Nc1c(Cl)cc(-c2nnc(C3CCN(C4CCC4)CC3)o2)c2c1CCCO2 [Example 14, 6-Chloro-8-[5-(1-cyclobutyl-piperidin-4-yl)-[1,3,4]oxadiazol-2-yl]-chroman-5-ylamine]
[1]; [4]
  AUC(0-t): 773 ± 45 ng·h/mL
  Cmax: 783 ± 124 ng/mL
  Tmax: 4.8 min
  half-life: 73.2 ± 15.6 min
[1]; [5]
  bioavailability: 42 ± 10%
[1]; [6]
  AUC(0-t): 645 ± 136 ng·h/mL
  Cmax: 513 ± 125 ng/mL
  Tmax: 15 min
  half-life: 57.6 ± 6.6 min
[2]; brain homogenate and plasma
  Kp: 2.24 ± 0.09
Male Wister rats; 1 mg/kg
  Exploration time mean ± S.E.M, Familiar object: 5.06 ± 1.32 s
  Exploration time mean ± S.E.M, Novel object: 12.68 ± 1.14 s
  Inference: Active
rats
  Reversal of Scopolamine Induced amnesia - Effective dose range: 1-10 mg/kg, p.o.
[3]
  EC50: 1.3 nM

## CCOC(=O)N1CCC(N2CCC(c3nnc(-c4cc(Cl)c(N)c5c4OCCC5)o3)CC2)CC1 [Example 19, 4-[5-(5-Amino-6-chloro-chroman-8-yl)-[1,3,4]oxadiazol-2-yl]-[1,4′]bipiperidinyl-1′-carboxylic acid ethyl ester]
[1]; [4]
  AUC(0-t): 2370 ± 90 ng·h/mL
  Cmax: 1860 ± 115 ng/mL
  Tmax: 4.8 min
  half-life: 133 ± 13.8 min
[1]; [5]
  bioavailability: 101 ± 1%
[1]; [6]
  AUC(0-t): 4814 ± 30 ng·h/mL
  Cmax: 1760 ± 264 ng/mL
  Tmax: 30 min
  half-life: 88.8 ± 10.8 min
Male Wister rats; 10 mg/kg
  Exploration time mean ± S.E.M, Familiar object: 7.19 ± 0.65 s
  Exploration time mean ± S.E.M, Novel object: 13.21 ± 2.1 s
  Inference: Active
[3]
  EC50: 6.8 nM

## Nc1c(Cl)cc(-c2nnc(C3CCN(CC4CCOCC4)CC3)o2)c2c1CCCO2.O=C(O)C(=O)O [Example 26, 6-Chloro-8-{5-[1-(tetrahydro-pyran-4-ylmethyl)-piperidin-4-yl]-[1,3,4]oxadiazol-2-yl}-chroman-5-ylamine oxalate salt]
Male Wister rats; 3 mg/kg
  Exploration time mean ± S.E.M, Familiar object: 7.12 ± 1.44 s
  Exploration time mean ± S.E.M, Novel object: 14.42 ± 2.22 s
  Inference: Active
[3]
  EC50: 18 nM

## Nc1c(Cl)cc(-c2nnc(C3CCN(C4CCC4)CC3)o2)c2c1OCCO2 [Example 16, 6-Chloro-8-[5-(1-cyclobutyl-piperidin-4-yl)-[1,3,4]oxadiazol-2-yl]-2,3-dihydro-benzo[1,4]dioxin-5-ylamine]
Male Wister rats; 10 mg/kg
  Exploration time mean ± S.E.M, Familiar object: 8.03 ± 1.58 s
  Exploration time mean ± S.E.M, Novel object: 13.94 ± 1.76 s
  Inference: Active
[3]
  EC50: 13.3 nM

## CC(C)n1nc(-c2nnc(C3CCN(C4CCOCC4)CC3)o2)c2ccccc21 [Example 48, 1-Isopropyl-3-{5-[1-(tetrahydro-pyran-4-yl)-piperidin-4-yl]-[1,3,4]oxadiazol-2-yl}-1H-indazole oxalate salt]
[2]; in vivo
  Kp: 2.55 ± 0.32

## CC(C)CCN1CCC(c2nnc(-c3cc(Cl)c(N)c4c3OCCC4)o2)CC1 [Example 9, 6-Chloro-8-{5-[1-(3-methyl-butyl)-piperidin-4-yl]-[1,3,4]oxadiazol-2-yl}-chroman-5-ylamine]
[1]; [4]
  AUC(0-t): 836 ± 374 ng·h/mL
  Cmax: 792 ± 111 ng/mL
  Tmax: 4.8 min
  half-life: 82.8 ± 39.6 min
[1]; [5]
  bioavailability: 66 ± 21%
[1]; [6]
  AUC(0-t): 1210 ± 941 ng·h/mL
  Cmax: 412 ± 177 ng/mL
  Tmax: 40.2 ± 14.4 min
  half-life: 89.4 ± 38.4 min
Male Wister rats; 3 mg/kg
  Exploration time mean ± S.E.M, Familiar object: 11.21 ± 2.18 s
  Exploration time mean ± S.E.M, Novel object: 16.47 ± 1.18 s
  Inference: Active
[3]
  EC50: 2.4 nM
